Assays:
[1] = target: T1, M2 type muscarinic cholinergic receptor (Rattus norvegicus, UniProt P10980); assay: Radioligand binding experiment to M2 type muscarinic cholinergic receptor ([3H]-QNB); details: 0.1 nM [3H]-QNB, rat brain stem synaptosome membrane; read-out: [^3 H]-QMB (M2) IC50
T1 construct: crude synaptosome membrane specimen was prepared from the brain stem (medulla oblongata-pons) of rat; from tissue; host or cells: rat brain stem (medulla oblongata-pons), crude synaptosomal membranes
T1 sequence (P10980 1-466): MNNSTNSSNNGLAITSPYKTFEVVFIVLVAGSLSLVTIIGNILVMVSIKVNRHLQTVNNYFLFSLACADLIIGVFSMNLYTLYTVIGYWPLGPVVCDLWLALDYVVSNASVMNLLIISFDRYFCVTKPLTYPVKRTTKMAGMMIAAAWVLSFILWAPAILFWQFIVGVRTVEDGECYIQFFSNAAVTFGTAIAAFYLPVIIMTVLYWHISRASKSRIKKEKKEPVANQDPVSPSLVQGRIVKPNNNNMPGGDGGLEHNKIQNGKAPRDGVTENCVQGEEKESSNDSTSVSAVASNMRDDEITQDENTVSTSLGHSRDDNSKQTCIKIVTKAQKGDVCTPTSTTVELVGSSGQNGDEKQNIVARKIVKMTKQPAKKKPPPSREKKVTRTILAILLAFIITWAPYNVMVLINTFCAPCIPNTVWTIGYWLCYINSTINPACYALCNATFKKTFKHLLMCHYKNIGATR

[2] = target: T2, M1 type muscarinic cholinergic receptor (Rattus norvegicus, UniProt P08482); assay: Radioligand binding experiment to M1 type muscarinic cholinergic receptor ([3H]-pirenzepine); details: 1 nM [3H]-pirenzepine, rat brain synaptosome membrane, 60 minutes at 25° C.; read-out: [^3 H]-PZ (M1) IC50
T2 construct: crude synaptosome membrane specimen prepared from all brains (except cerebellum and brain stem) of rat; from tissue; host or cells: rat whole brain without cerebellum and brain stem, crude synaptosomal membranes
T2 sequence (P08482 1-460): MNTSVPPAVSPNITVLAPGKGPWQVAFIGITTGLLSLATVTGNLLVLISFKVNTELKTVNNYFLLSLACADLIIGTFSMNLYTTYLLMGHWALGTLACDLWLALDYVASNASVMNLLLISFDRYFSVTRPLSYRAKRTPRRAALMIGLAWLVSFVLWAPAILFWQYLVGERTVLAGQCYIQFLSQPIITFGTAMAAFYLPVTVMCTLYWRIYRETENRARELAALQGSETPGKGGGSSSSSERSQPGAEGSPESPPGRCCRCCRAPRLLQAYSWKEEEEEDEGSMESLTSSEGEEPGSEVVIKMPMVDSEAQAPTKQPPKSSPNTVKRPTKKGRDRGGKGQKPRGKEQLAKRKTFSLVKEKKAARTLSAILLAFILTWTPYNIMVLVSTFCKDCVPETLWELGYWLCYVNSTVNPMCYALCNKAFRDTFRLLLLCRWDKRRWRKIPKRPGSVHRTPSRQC
Description: 1) Radioligand binding experiment to M1 type muscarinic cholinergic receptor
Method: To a crude synaptosome membrane specimen prepared from all brains (except cerebellum and brain stem) of rat, [^3 H]-pirenzepine ([^3 H]-PZ, final concentration: 1 nM) and testing compound were added and the mixture was incubated for 60 minutes at 25° C. After stopped the reaction by filtered with suction, the radioactivity on filter was measured with liquid scintillation counter. The specific binding level of [^3 H]-pirenzepine was determined by subtracting the non-specific binding level in the presence of atropine (1 μM) from total binding level. Putting the [^3 H]-pirenzepine binding in the absence of testing compound on 100, the concentration of compound to decrease by 50% (IC50 value) was made an index of the binding activity of compound to M1 muscarinic receptor (refer to: J. A. D. M. Toner et al, Life Science, 1987, 40, 1981-1987).

[3] = test system: M1 and M2 muscarinic receptors; assay: Selectivity to M1 receptor (ratio of IC50 values of M1 and M2 binding experiments); parameters: species or system rat
Description: 3) Selectivity to M1 receptor
This was determined from the ratio of IC50 values of testing compound obtained from the binding experiments of M1 and M2 muscarinic receptors. [formula]

[4] = test system: pirenzepine-induced amnesia; assay: Testing on the pirenzepine-induced amnesia (step-through type passive avoidance); assay type: in vivo, Std:ddy strain male mice; details: orally 60 minutes before acquisition trial; for Reaction latency Mean ± S.E.: retention trial 24 hours later, maximum 300 seconds, pirenzepine-treated mice
Text: In vivo pharmacological test
Testing on the pirenzepine-induced amnesia
For the experiment animals, Std:ddy strain male mice with body weight of 24 to 33 g (age in week: 5) (Nippon SLC) were used. For the device, a step-through type passive avoidance apparatus (made by Ohara Medical Co., Ltd.) consisting of two light and dark rooms was used. In the acquisition trial, mouse was placed in the light room and, 10 seconds later, the partitive guillotine door was opened. As soon as the mouse moved into the dark room, the guillotine door was closed and electric shock of 43 to 44 V was given for 1 second through the metal grid bars of the floor. The retention trial was conducted 24 hours later since then. […] The induction of amnesia was performed by fixing a mouse at prone position without anesthetization at 20 minutes before learning acquisition trial and injecting pirenzepine (10 μg/2 μl/mouse bilaterally into cerebral ventricles using a microsyringe. Moreover, a group not to administered with pirenzepine before acquisition trial (non-amnesia comparison group) was also provided. The testing compound was administered orally at 60 minutes before acquisition trial. The improvement rate was calculated according to following equation and the results are shown in Table 8 (refer to: M. P. Callfield et al, J. Pharm. Pharmacol.) 1983, 35, 131-132). [formula]

| IC50 [1] [nM] | IC50 [2] [nM] | IC50 (M2)/C50 (M1) [3] | SMILES | Improvement rate ([4]; 3 mg/kg) [%] | Reaction latency Mean ± S.E. ([4]; 3 mg/kg) [s] | Improvement rate ([4]; 1 mg/kg) [%] | Reaction latency Mean ± S.E. ([4]; 1 mg/kg) [s] |
| --- | --- | --- | --- | --- | --- | --- | --- |
| > 6000 | 530 | > 11.3 | O=C1N(C2=CCCN(Cc3ccccc3)C2)CCN1c1ccc([N+](=O)[O-])cc1 [Example 4, 1-[3-(1-Phenylmethyl-1,2,5,6-tetrahydropyridyl)]-3-(4-nitrophenyl)-2-imidazolidinone] | 43.6 | 71.1 ± 30.2 |  |  |
| > 6000 | 370 | > 16.2 | O=C1N(C2=CCCN(Cc3ccccc3)C2)CCN1c1ccc(Cl)cc1 [Example 17, 1-[3-(1-Phenylmethyl-1,2,5,6-tetrahydropyridyl)]-3-(4-chlorophenyl)-2-imidazolidinone] | 68.8 | 164.2 ± 37.5 | 82.7 | 189.9 ± 52.8 |
